Results published in patent US12128257B2, “Extracts of Isochrysis sp” (SYMRISE AG, priority 2008, dated 2024).

Test system: hair follicles
Experiment: Hair follicle growth (elongation) in organ culture of scalp hair follicles, image analysis
Assay type: cell-based, human
Details: Table 7, day 10 of culture, pooled from two donors
Experimental: For each experiment and the control 9-12 follicles were used, plated at the density of 3 hair follicles/well in 24 well plates. Hair follicles were taken from the head of the scalp and transferred for cultivation in sterile 24 well plates using a modified Williams' Medium E. Cultivation took place for nine days, following 18 h of pre-incubation performed in order to select hair follicles suitable to be maintained in culture. Only those follicles showing a good vital stage and a growth of not less than 0.2 mm were used.
The growth performances observed in the treated hair follicles were compared to a control group, which was cultured in the same culture medium but free from extract supplement.
[…] In order to obtain these supplemented media, the required quantity of dir-MeOH extract was submitted to solvent evaporation and then redissolved again in DMSO. The final concentration of this DMSO-solved extract has been adjusted in order to supplement the experimental media with the desired extract quantity, obtaining at same time a final concentration in DMSO equal to 0.05%. The same concentration of DMSO has also been used in the medium for the culture of the control group.
The experiments were terminated after 10 days of cultivation (9 days of treatment). The growth of the hair follicles was studied by microphotography and subsequently determined by image analysis. All the hair follicles were photographed every two days.
1, were the hair follicle elongation is expressed as percentage ratio between the experimental groups and the untreated control: […]

For CC/C=C\C/C=C\C/C=C\C/C=C\C/C=C\C/C=C\CCC(=O)O [DHA, docosahexaenoic acid], the “Growth (%): Elongation in [%] of the control performance” value (“Growth (%): Elongation in [%]” for short) (0.003 μg/ml) was 99.5%, the “Growth (%): Elongation in [%]” value (0.03 μg/ml) was 93.5% and the “Growth (%): Elongation in [%]” value (0.3 μg/ml) was 89.3%.
